# Measurements: patent publication US5693330A, “Skin care compositions containing melinamide and a retinoid” (priority 1996, dated 1997)
# Read-outs that look alike come from different tables or passages of the source.
# Test system: Human keratinocytes
# Test: 3H-thymidine incorporation by cultured keratinocytes (keratinocyte proliferation)
# Type: cell-based
# Conditions: for effect on keratinocyte proliferation (summary): Examples 1-3; for activity at 0.1 µM / activity at 0.25 µM / activation at 0.25 µM / activation at 0.025 µM / activity at 0.025 µM: Homo sapiens, Keratinocyte; for activity at 0.1 µM / activity at 0.25 µM / activity at 0.025 µM: read-out: mean Thymidine incorp/μg protein (% control)
# Method: Human keratinocytes, isolated from neonatal foreskin by trypsin treatment were grown in Dulbecco Modification Eagle (DME) Hams F12 (1:1) medium/10% fetal calf serum in the presence of irradiated 3T3 mouse fibroblasts for establishing dividing keratinocyte colonies. Cells were grown under the above condition until their second passage and kept frozen for future use. Frozen second passage keratinocytes were thawed and plated into the above medium and grown for five days before they were switched to a serum-free MCDB 153-based medium keratinocyte growth medium (KGM) from Clonetics Corporation, San Diego, Calif., containing 0.15 mM Ca, or keratinocyte serum-free media (KSFM) from GIBCO containing 0.09 mM Ca). On day 7, when the cells were 80-90% confluent, they were trypsinized and plated in the serum-free medium for the various experiments.
# The incorporation of ^3 H-thymidine by cultured keratinocytes was used as an assay of keratinocyte proliferation. Thymidine is one of four deoxynucleosides which are the monomeric units of DNA, the universal library of genetic information in the animal kingdom. Prior to cell division of a somatic cell such as a keratinocyte, the complete genome of the cell undergoing cell division is replicated. This involves large scale DNA synthesis by the cell and enables both daughter cells to receive identical copies of the genetic material. When ^3 H-thymidine is included in the culture media of keratinocytes which are synthesizing DNA in preparation for cell division then the labelled nucleoside is incorporated into the newly synthesized DNA. The extent of incorporation of ^3 H-thymidine into a population of cells is proportional to the rate of DNA synthesis by this population of cells and therefore an indication of their cellular proliferation.
# Keratinocytes (that were cultured as described above) were plated in 24 well plates at a density of 40,000 cells per well in 1 ml media. After incubation for four days or until the cells were 60-70% confluent, the media was changed. Test compounds were added (in triplicate) to the wells 24 hours after the media change, and four hours later 1 μCl ^3 H-Thymidine in 50 μl media was added per well. Cells were incubated for a further 24 hours. Media was removed from the cells, 10% ice cold trichloroacetic acid (TCA) added and plates were incubated on ice for 30 minutes. Cells were washed five times with 5% TCA and allowed to dissolve in 500 μl […] NaOH for at least one hour (usually overnight). The preparations were neutralized with 0.1M HCl; 50 μl of the cell preparation was used to determine total protein content. Disintegrations per minute (DPM) from ^3 H labelling of DNA was determined by liquid scintillation counting of […] of the cell preparation. Thymidine incorporation results were expressed as DPM/μg protein.
# A. The effect on incorporation of ^3 H-thymidine μg soluble protein 24 hours after the addition of retinoic acid or retinol at various concentrations was examined.
# The effect on incorporation of ^3 H-thymidine/μg soluble protein 24 hours after addition of the test compounds was examined and the combined results of three independent experiments were normalized to their respective ethanol controls.
# The effect of melinamide and the retinyl ester (retinyl palmitate) on incorporation of ^3 H-thymidine was examined.
# [1] = Example 2, 2.5 × 10^-8 M, n = 3, 24 hours, three experiments normalized to ethanol controls
# [2] = read-out: increase in keratinocyte thymidine incorporation over the ethanol control
compound,measurement,setting,value
"CCCCC/C=C\C/C=C\CCCCCCCC(=O)NC(C)c1ccccc1 (stereo not shown) [Melinamide, melinamide]",effect on keratinocyte proliferation on its own,"Example 2, 10^-7 M",no effect
same,mean Thymidine incorp/μg protein ± s.d,"Example 2, 10^-7 M, n = 3, 24 hours, three experiments normalized to ethanol controls",4695 ± 324 DPM/μg protein
same,effect on keratinocyte proliferation on its own,"Example 3, 10^-7 M",no effect
same,mean Thymidine incorp/μg protein ± s.d,"Example 3, 10^-7 M",4635 ± 608 DPM/μg protein
same,effect on keratinocyte proliferation (summary),,little or no benefit on its own
same,activity at 0.1 µM,"24 h, Example 2, 10^-7 M, n = 3, 24 hours",91%
same,activity at 0.1 µM,"24 h, Example 3, 10^-7 M",84%
"CC1=C(/C=C/C(C)=C/C=C/C(C)=C/C(=O)O)C(C)(C)CCC1 [RA, Retinoic acid]",keratinocyte proliferation over both the ethanol control and each of the retinol treatments,"Example 1, 2.5×10^-7 M, 2.5×10^-8 and 2.5×10^-9 M",significantly increased keratinocyte proliferation
same,mean Thymidine incorp/μg protein ± s.d,[1],6711 ± 402 DPM/μg protein
same,mean Thymidine incorp/μg protein ± s.d,"Example 3, 2.5 × 10^-7 M",7795 ± 370 DPM/μg protein
same,effect on keratinocyte proliferation (summary),,increased keratinocyte proliferation
same,activity at 0.25 µM,"24 h, Example 3, 2.5 × 10^-7 M",142%
same,activation at 0.25 µM,read-out: increase in keratinocyte thymidine incorporation over the 2.5×10^-7 M retinyl palmitate treatment,38%
same,activation at 0.025 µM,read-out: increase in keratinocyte thymidine incorporation over the 2.5×10^-8 M retinol treatment,30%
same,activation at 0.025 µM,[2],30%
same,activation at 0.25 µM,[2],38%
same,activity at 0.025 µM,"Example 2, 2.5 × 10^-8 M, n = 3, 24 hours",130%
"CC1=C(/C=C/C(C)=C/C=C/C(C)=C/CO)C(C)(C)CCC1 [ROH, Retinol]",mean Thymidine incorp/μg protein ± s.d,[1],3956 ± 1303 DPM/μg protein
same,effect on keratinocyte proliferation (summary),,completely ineffective at increasing keratinocyte proliferation
same,activity at 0.025 µM,"24 h, Example 2, 2.5 × 10^-8 M, n = 3, 24 hours",76%
"CCCCCCCCCCCCCCCC(=O)OC/C=C(C)/C=C/C=C(C)/C=C/C1=C(C)CCCC1(C)C [Retinyl palmitate, retinyl palmitate]",mean Thymidine incorp/μg protein ± s.d,"Example 3, 2.5 × 10^-7 M",5746 ± 113 DPM/μg protein
same,activity at 0.25 µM,"24 h, Example 3, 2.5 × 10^-7 M",104%
